Experimental data reported in patent US20110152178A1 (priority 2008, published 2011).
“Also recorded” adds a separate entry of the source. Peptide text beside a SMILES is read from it. * marks the point of attachment. Stearoyl = CCCCCCCCCCCCCCCCCC(=O)*

Columns and labels:
[1] = tested on: influenza virus A/Victria/1/75 (H3N2); assay: Plaque assay on MDCK cells, inhibition of influenza virus infection (H3N2); format: cell-based, influenza type A virus
Procedure: (§1) Inhibition of influenza virus infection was determined by a plaque assay on MDCK cells. The MDCK cells in 6-well plates were incubated with 0.2 mL of influenza virus A/PR/8/34 solutions (100 to 200 pfu; pfu denotes plaque-forming units; subtype H1N1) or influenza virus A/Victria/1/75 solutions (100-200 pfu; subtype H3N2) each containing C18-D1, S2 (H-ARLPRTMVHPKPAQP-NH2), C18-S2 (stearoyl-ARLPRTMVHPKPAQP-NH2), or D1 (H-GLAMAPSVGHVRQHG-NH2). After incubation at 37° C. under 5% CO2 for 30 minutes, the supernatant was removed, and the cells were washed with PBS. 2 mL (per well) of 2×MEM+BSA containing 0.6% agarose, 0.01% of O-diethylaminoethyl cellulose dextran, 0.1% NaHCO3, and 0.01 μg/mL of acetyl trypsin was added, and the cells were incubated for two days. Viable cells were stained with a crystal violet solution (1 mg/mL in 20% ethanol), and the number of plaques was counted. The maximum infection activity (100%) was defined as the number of plaques in the case of the absence of C18-D1. The IC50 value (50% inhibitory concentration) of C18-D1 was obtained from the plot between log [f/(1−f)] and log [C18-D1], wherein f is the percent infection activity. The IC50 values of S2, C18-S2, and D1 were calculated in a similar manner.

[2] = Critical micelle concentration by NPN fluorescence in PBS; format: physicochemical; settings: PBS (pH 7.5), 1 μM NPN
Procedure: The critical micelle concentration (CMC) of the purified C18-D1 was determined in the following manner. PBS (pH 7.5) containing 1 μM of N-phenyl-1-naphthylamine (hereinafter abbreviated as “NPN”) was prepared. A C18-D1 peptide stock solution (1 mM) was serially diluted to final concentrations of […], 10, and 30 μM. These solutions were excited by a wavelength of 350 nm, and the fluorescence intensity (FI) at 450 nm was measured. The difference in FI between each diluted peptide solution and PBS alone was plotted as the ordinate, and the peptide solutions were plotted as the abscissa. The concentration at the intersection of the high concentration curve and the low concentration curve was determined. The critical micelle concentration (CMC) of the intersection was 1.3 μM.

[3] = tested on: influenza virus (H1N1); set-up: species or system mice; settings: mouse
[4] = tested on: influenza virus A/PR/8/34 (H1N1); assay: Plaque assay on MDCK cells, inhibition of influenza virus infection (H1N1); format: cell-based, influenza type A virus; settings: for IC50: H1N1, plaque assay on MDCK cells; for anti-influenza virus activity in vitro: MDCK plaque assay
Procedure: as §1

[5] = target: hemagglutinin of influenza type A virus A/PR/8/34 (H1N1) (influenza A virus A/PR/8/34 (H1N1)) (UniProt P03452); assay: cell-based or functional assay
[6] = target: hemagglutinin of influenza type A virus A/Victria/1/75 (H3N2) (influenza A virus A/Victria/1/75 (H3N2)); assay: cell-based or functional assay

CCCCCCCCCCCCCCCCCC(=O)NCC(=O)N[C@@H](CC(C)C)C(=O)N[C@@H](C)C(=O)N[C@@H](CCSC)C(=O)N[C@@H](C)C(=O)N1CCC[C@H]1C(=O)N[C@@H](CO)C(=O)N[C@H](C(=O)NCC(=O)N[C@@H](Cc1c[nH]cn1)C(=O)N[C@H](C(=O)N[C@@H](CCCNC(=N)N)C(=O)N[C@@H](CCC(N)=O)C(=O)N[C@@H](Cc1c[nH]cn1)C(=O)NCC(N)=O)C(C)C)C(C)C [C18-D1, (stearoyl)-Gly Leu Ala Met Ala Pro Ser Val Gly His Val Arg Gln His Gly-NH2] (Stearoyl-GLAMAPSVGHVRQHG-NH2)
IC50 ([1]; H3N2, plaque assay on MDCK cells): 7.5 µM
infection of MDCK cells with H3N2 ([1]; in vitro, MDCK plaque assay): inhibited
critical micelle concentration (CMC) [2]: 1.3 µM
mice survived ([3]; in vivo): ≥ 80%
IC50 [4]: 11 µM
anti-influenza virus activity in vitro [4]: inhibited
anti-influenza virus activity in vitro ([4]; listed as 018-D1): excellent anti-influenza virus activity

CCCCCCCCCCCCCCCCCC(=O)N[C@@H](C)C(=O)N[C@@H](CCCNC(=N)N)C(=O)N[C@@H](CC(C)C)C(=O)N1CCC[C@H]1C(=O)N[C@@H](CCCNC(=N)N)C(=O)N[C@H](C(=O)N[C@@H](CCSC)C(=O)N[C@H](C(=O)N[C@@H](Cc1c[nH]cn1)C(=O)N1CCC[C@H]1C(=O)N[C@@H](CCCCN)C(=O)N1CCC[C@H]1C(=O)N[C@@H](C)C(=O)N[C@@H](CCC(N)=O)C(=O)N1CCC[C@H]1C(N)=O)C(C)C)[C@@H](C)O [C18-S2, stearoyl ARLPRTMVHPKPAQP-NH2] (Stearoyl-ARLPRTMVHPKPAQP-NH2)
in vivo effect on influenza virus infection [3]: ineffective in vivo; also recorded: caused early mortality
IC50 [4]: 10 µM
anti-influenza virus activity in vitro [4]: potent anti-influenza virus effect in vitro; also recorded: excellent anti-influenza virus activity

H-ARLPRTMVHPKPAQP-NH2 [S2-NH2, H-ARLPRTMVHPKPAQP-NH2]
IC50 [4]: > 100 µM

H-GLAMAPSVGHVRQHG-NH2 [D1-NH2, H-GLAMAPSVGHVRQHG-NH2]
IC50 [4]: > 100 µM

Stearoyl-GLAMAPSVGHVRQHG-NH2 [C18-D1 (stearoyl-Gly Leu Ala Met Ala Pro Ser Val Gly His Val Arg Gln His Gly-NH2), as self-assembly]
IC50 (plaque assay on MDCK cells, inhibition of influenza virus infection) [5]: 11 µM
IC50 (plaque assay on MDCK cells, inhibition of influenza virus infection) [6]: 7.5 µM
